Test [1] has as its target T1, ALDH2 (Homo sapiens, UniProt P05091).
T1 sequence (P05091 18-517): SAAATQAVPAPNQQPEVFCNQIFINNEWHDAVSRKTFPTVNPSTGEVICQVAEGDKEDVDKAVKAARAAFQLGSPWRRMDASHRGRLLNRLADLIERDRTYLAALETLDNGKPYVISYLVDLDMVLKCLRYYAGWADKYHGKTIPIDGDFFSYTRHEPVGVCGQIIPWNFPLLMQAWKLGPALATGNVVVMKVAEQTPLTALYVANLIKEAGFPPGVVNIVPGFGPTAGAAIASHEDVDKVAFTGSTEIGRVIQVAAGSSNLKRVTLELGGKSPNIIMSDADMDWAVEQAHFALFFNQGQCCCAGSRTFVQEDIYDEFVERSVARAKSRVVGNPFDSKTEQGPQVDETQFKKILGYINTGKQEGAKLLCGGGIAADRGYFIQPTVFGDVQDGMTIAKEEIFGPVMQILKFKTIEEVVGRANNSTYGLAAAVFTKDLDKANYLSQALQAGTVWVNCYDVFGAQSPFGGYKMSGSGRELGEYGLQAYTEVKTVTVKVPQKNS
Briefly: QuantiChrom ALDH inhibitor screening kit, diaphorase/MTT-coupled colorimetric assay ([…] nm), recombinant enzyme. It counts as biochemical.

In test [2] the target is T1, ALDH2. Nature of the test: QuantiChrom ALDH inhibitor screening kit, % inhibition at […], recombinant enzyme. Format: biochemical.

What is called IC50 is the concentration that gives 50% inhibition. Regarding `O=c1c(O)c(-c2ccc(O)c(O)c2)oc2cc(O)cc(O)c12` [compound 2, quercetin], the IC50 on ALDH2 [1] came out at 26.5 µM. As usually defined, the inhibition is the share of the control response that was lost under treatment. As for `COc1ccc(-c2oc3cc(O)cc(O)c3c(=O)c2O)cc1O` [compound 8, tamarixetin], the inhibition at 20 µM at ALDH2 [2] was found to be 25.8 ± 1.31%. With `O=C(O)[C@H]1O[C@@H](Oc2c(-c3ccc(O)c(O)c3)oc3cc(O)cc(O)c3c2=O)[C@H](O)[C@@H](O)[C@@H]1O` [compound 9, quercetin-3-glucuronide], on ALDH2 [1], the IC50 came out at 9.62 µM.

Source of the values: publication PMC10662156 (Scientific Reports, 2023).
